Where a SMILES comes first, the peptide text is derived from it.
Columns and labels:
EDL muscles--female mice = assay: 2-deoxy-D-[1-3H]glucose uptake into EDL muscles, female mice; format: cell-based; settings: 10^-7 M; for increase in the uptake of 2-deoxy-D-glucose into the muscles (%): normal female mice
Protocol: (§1) Isolated soleus, EDL (extensor digitorum longus) or diaphragm muscles of normal male and female mice were incubated for 30 min at 37° C. in oxygenated Krebs buffer containing 2-deoxy-D-[1-^3 H]glucose. 2-Deoxy-D-glucose is a derivative of D-glucose which is taken up into muscle by carrier-mediated transport and which accumulates in muscle as 2-deoxy-D-glucose-6-phosphate without further metabolism. The tritiated derivative can therefore be used to determine the uptake into muscle of D-glucose (which itself is metabolised). A COOH-terminal (C-terminal) fragment of β-endorphin and an analogue of a β-endorphin fragment were added to the Krebs buffer. These were the C-terminal dipeptide (glycyl-L-glutamine or glycyl-L-glutamic acid) and CH3 CO-Lys-D-Lys-Sar-Glu, a stable analogue of the C-terminal tetrapeptide of β-endorphin. Pyruvate (2 mM) and 2% bovine serum albumen were also present in the bathing medium surrounding the muscles. The extracellular space in the muscles was determined by including L-[1-^14 C] glucose, which is not transported into muscle via the D-glucose membrane carrier.
(§2) At the end of the incubation period, the tissue samples were digested in 1 M NaOH at 90° C. and the radioactivity counted by liquid scintillation counting.
d) EDL muscles--female mice
Following the procedure outlined in Example 1, it was shown that Gly-Gin in a concentration of 10^-7 M caused a 180% increase in 2-deoxy-D-glucoseuptake in EDL muscles of normal female mice, whilst with Gly-Glu there was an 80% increase.

dopamine-depleted rats = settings: rat, in vivo; cited from earlier work
urodele limb = settings: in vivo; cited from earlier work
[1] = tested on: Isolated soleus muscles--male mice; assay: 2-deoxy-D-[1-3H]glucose uptake into isolated soleus muscles, male mice; format: cell-based; settings: 10^-9 M
Protocol: as §1, §2
a) Isolated soleus muscles--male mice

[2] = tested on: Isolated soleus muscles--female mice; assay: 2-deoxy-D-[1-3H]glucose uptake into isolated soleus muscles, female mice; format: cell-based; settings: 10^-8 M
Protocol: as §1, §2
b) Isolated soleus muscles--female mice

EDL muscles--male mice = assay: 2-deoxy-D-[1-3H]glucose uptake into EDL muscles, male mice; format: cell-based; settings: 10^-9 M
Protocol: as §1, §2
c) EDL muscles--male mice

[3] = tested on: Diaphragm muscles--female mice; assay: 2-deoxy-D-[1-3H]glucose uptake into diaphragm muscles, female mice; format: cell-based; settings: 10^-8 M
Protocol: as §1, §2
e) Diaphragm muscles--female mice

[4] = tested on: subjects with non-insulin dependent diabetes mellitus (type II); settings: type II diabetics, cited from earlier work
[5] = 2.5 mg by intravenous bolus injection

In the case of `NCC(=O)N[C@@H](CCC(N)=O)C(=O)O` [Gly-Gin, glycyl-L-glutamine] (H-Gly-Gln-OH), the “increase in the uptake of 2-deoxy-D-glucose into the muscles (%)” value (“increase in the uptake … (%)” for short) (EDL muscles--female mice) is reported as 180%.

In the case of `NCC(=O)N[C@@H](CCC(=O)O)C(=O)O` [Gly-Glu, glycyl-L-glutamic acid] (H-Gly-Glu-OH), the “increase in the uptake … (%)” value (EDL muscles--female mice) is reported as 80%.

For “Lys-Lys-Gly-Glu (KKGE; printed: Lys-Lys-Gly-Glu) [MPF]”, the “turning response of dopamine-depleted rats to D-amphetamine” value (dopamine-depleted rats) is listed as “significant reductions” and the urodele limb regeneration (urodele limb) is listed as “promoting”.

In the case of insulin, the “increase in the uptake … (%)” value [1] is reported as 500%, the “increase in the uptake of 2-deoxy-D-glucose into the muscles (fold)” value (from here on “increase in the uptake … (fold)”) [1] is reported as 6 fold and the “increase in the uptake … (%)” value [2] is reported as ~100%. The “increase in the uptake … (fold)” value [2] was “approximately 2 fold”, the “increase in the uptake … (%)” value (EDL muscles--male mice) was 150% and the “increase in the uptake … (fold)” value (EDL muscles--male mice) was 2.5 fold. The “increase in the uptake … (fold)” value (EDL muscles--female mice; female mice) was 3.5 fold, the “increase in the uptake … (%)” value (EDL muscles--female mice) was 250% and the “increase in the uptake … (fold)” value [3] was “similar”.

For “β-endorphin (YGGFMTSEKSQTPLVTLFKNAIIKNAYKKGE; Beta-endorphin; UniProt P01189 237-267, looked up) [human β-endorphin]”, the “duration of increments in plasma insulin and glucagon” value [4, 5] is listed as “up to 90 minutes”, the “plasma concentrations of insulin and glucagon” value [4, 5] is listed as “prompt and simultaneous increments” and the “progressive decline in plasma glucose: effect of administration” value ([4]; administration one hour after start of three hour study period) is listed as “substantially unaffected”.

Source: patent US6184209A, “Diabetes treatment” (Alizyme Therapeutics Limited, priority 1996, dated 2001)
